According to article PMC12131194, “Rational design, synthesis, and evaluation of novel polypharmacological compounds targeting NaV1.5, KV1.5, and K2P channels for atrial fibrillation” (The Journal of Biological Chemistry, 2025):

Assays:
[1] = molecular target: T1, Kir2.1 (Rattus norvegicus, UniProt Q64273); assay: TEVC selectivity in X. laevis oocytes, Kir2.1; type: cell-based; conditions: mean ± SD, n = 3, read-out: Effect on Kir2.1 (inhibition)
T1 construct: Kir2.1 (KCNJ2, NM_017296); expressed in transfected cells; host or cells: Xenopus laevis oocytes injected with cRNA
T1 sequence (Q64273 1-427): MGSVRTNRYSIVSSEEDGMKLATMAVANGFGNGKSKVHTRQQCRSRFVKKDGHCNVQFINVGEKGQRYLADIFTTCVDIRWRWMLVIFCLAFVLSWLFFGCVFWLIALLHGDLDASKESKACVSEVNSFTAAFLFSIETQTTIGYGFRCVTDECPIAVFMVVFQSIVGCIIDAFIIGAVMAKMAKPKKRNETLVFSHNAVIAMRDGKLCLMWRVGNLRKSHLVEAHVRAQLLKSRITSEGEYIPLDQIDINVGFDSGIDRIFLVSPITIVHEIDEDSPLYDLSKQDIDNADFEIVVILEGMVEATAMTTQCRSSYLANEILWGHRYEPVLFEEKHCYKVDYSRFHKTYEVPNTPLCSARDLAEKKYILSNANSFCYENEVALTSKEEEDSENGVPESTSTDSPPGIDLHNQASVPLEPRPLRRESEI
Experimental: After confirming compound 6f simultaneous blockade of TASK-1, KV1.5, and NaV1.5, other cardiac channels (Kir2.1, TREK-1, TASK-4) were tested for selectivity at 100 μM (Fig. 8).
To obtain X. laevis oocytes, the frogs were anesthetized with 2 g/L of tricaine methanesulfonate, and the ovarian lobes were mechanically separated with forceps. The oocytes were incubated for 120 min in an OR2 solution containing in mM: NaCl 82.5, KCl 2, MgCl2 1, HEPES 5 (pH 7.5) supplemented with 2 mg/ml of collagenase II (Sigma) to remove residual connective tissue and obtain individual oocytes. […]
In order to overexpress the channel in the oocyte, each of the channels to be measured was subcloned (complementary DNA (cDNA); human TASK-1 (KCNK3, NM_002246), h KV1.5 (KCNA5, NM_002234), h NaV1.5 (hH1, M77235), TASK-4/TALK-2 (KCNK17, NM_AF358910), TREK-1 (KCNK2, AF004711) and Kir2.1 (KCNJ2, NM_017296) into pSGEM, pBF1 or pSP64 expression vector, and the cDNA was linearized with NheI or MluI. Complementary RNA (cRNA) was synthesized with the mMESSAGE mMACHINE-Kit (Ambion). The quality of the cRNA was tested on an agarose gel by electrophoresis. cRNA was quantified using a UV-Vis spectrophotometer (NanoDrop 2000). […] After this time, the overexpression of each channel was monitored through electrophysiology. […]

[2] = system: HEK-293 cells; assay: MTT cytotoxicity assay; type: cell-based, human
Experimental: Another method used to assess cytotoxicity was the MTT assay on HEK293 cells. Initially, the cells were seeded at 3000 cells per well in a 96-well plate. After 24 h, they were exposed to increasing compound concentrations (1, 5, 10, 25, 50, 100, 250 and 500 μM) for 72 h. The cells cultured in a medium supplemented with 10% FBS were the positive control for cell viability. Each condition was evaluated triplicate in independent experiments. The ROCHE Cell Proliferation Kit I, MTT (Cat. no. 11465007001), was used, following the manufacturer's indications. Briefly, 10 μl of the labeling reagent was added, and the plates were incubated at 37 °C for 4 h. Subsequently, 100 μl of solubilization solution was added to each well, and the plates were incubated overnight in the dark. Finally, optical density was measured at 570 nm using a microplate reader (Thermo Fisher Scientific). The optical density measurements were used to calculate cell viability, normalizing the data to the positive control. Results were expressed as a percentage of cell viability relative to this control. The IC50 value was determined by fitting a dose-response curve using a nonlinear regression model with a four-parameter logistic equation. The experimental data analysis was performed using SigmaPlot version 12.0 (Systat Software Inc).

inhibition at 100 µM [1]: -1.01%
Structure (SMILES): CCCCN(CCCC)CC(=O)Nc1ccc(OC)cc1OC [Compound 6f, 2-(dibutylamine)-N-(2,4-dimethoxiphenyl)acetamide]
Concentrations with significant cytotoxic effects (MTT) ([2]; 72 h): higher than 129 μM | IC50 ([2]; Homo sapiens, HEK293, 72 h, read-out: IC50 cell viability (MTT)): 130 µM
